Source: PubChem BioAssay AID1963864 (Molecular Pharmacology Branch, DTP, NCI, 2024)

Test system: KRAS PDC multicell spheroid viability
Assay: Anticancer human tumor 521955-158-R6-J3-PDC patient-derived pancreatic carcinoma cell line growth inhibition [KRAS2]
Conditions: for IC50: curve of first compound; for viability, T/C: stronger effect = lower value
From the text: Multicellular complex tumor spheroid response to RAS pathway inhibitors in combination with a targeted agents in patient-derived cell lines with oncogenic KRAS variants from multiple cancer types
A high-throughput screen of multi-cell type tumor spheroids was designed to identify active combinations of targeted small molecules and KRAS pathway inhibitors. Complex spheroids include a stromal component modeled by human endothelial cells (HUVEC) and fibroblasts modeled by human mesenchymal stem cells (MSCs). The concentration ranges selected for each drug and investigational agent were based upon clinically achievable concentrations if the clinical Cmax of the agent was known.
Compounds. The drugs and investigational agents: BI-3406 (NSC825286), BAY-293 (NSC824723), batoprotafib (TNO155; NSC825523), sotorasib (AMG 510; NSC818433), MRTX1257 (NSC819558), elimusertib (BAY 1895344; NSC800525), molibresib (GSK525762; NSC774829), temuterkib (LY3214996; NSC803410), venetoclax (NSC766270), alisertib (NSC759677), olaparib (NSC753686), talazoparib (NSC767125), erdafitinib (NSC781556), ipatasertib (NSC767898), cabozantinib (NSC761068), nintedanib (NSC756659), abemaciclib (NSC768073), docetaxel (NSC628503), trametinib (NSC758246), and sapanisertib (NSC764658) were obtained from the National Cancer Institute (NCI) Developmental Therapeutics Program Chemical Repository. The FDA-approved anticancer drug set is available from the Developmental Therapeutics Program. […] The stock solutions were prepared in dimethyl sulfoxide (DMSO, Sigma-Aldrich, St. Louis, MO, cat. D2650) at 800-fold the tested concentration and stored at -70 degrees C prior to their use. All drugs and investigational agents were tested over a range starting from a high concentration at or near the clinical Cmax and decreasing in half-log increments. If the clinical Cmax for an agent had not been determined, the highest concentration tested was 10 microM.
Cell Culture. All cells were maintained in an incubator at 37 degrees C and 5% CO2 with 95% humidity. The PDC lines were cultured according to standard operating procedures established by the NCI PDMR (https://pdmr.cancer.gov/sops/default.htm). Briefly, all PDCs were thawed and cultured in Matrigel-coated flasks prepared with a working solution of 1X Ham's F-12 nutrient mix, without supplementation (Invitrogen, Waltham, MA, cat. 11765054), 100 U/mL penicillin-streptomycin (Invitrogen, cat. 15140122), and 2.5% Matrigel (Corning Inc., Corning, NY, cat. 354248) for the first three passages. All PDCs were cultured in complete DMEM/F-12 media containing advanced DMEM/F-12 (Invitrogen, cat. 12634028), 4.9% defined fetal bovine serum, heat inactivated (HyClone Laboratories Inc., Logan, UT, cat. SH30070.03HI), 389 ng/mL hydrocortisone (Sigma-Aldrich, cat. H4001), 9.7 ng/mL human EGF recombinant protein (Invitrogen, cat. PHG0313), 23.4 microg/mL adenine (Sigma-Aldrich, cat. A2786), 97.3 U/mL penicillin-streptomycin (Invitrogen, cat. 15140122), 1.9 mM L-glutamine (Invitrogen, cat. 25030081), and 9.7 microM Y-27632 dihydrochloride (Tocris Bioscience, Bristol, United Kingdom, cat. 1254). The PDCs were cultured in complete DMEM/F12 media without 9.7 microM Y-27632 dihydrochloride for at least two passages prior to the screen. The established cell line HOP-62 was cultured in RPMI 1640 medium, HEPES (Invitrogen, cat. 22400105) with 10% defined fetal bovine serum (HyClone Laboratories Inc., cat. SH30070.03) and 2 mM L-glutamine (Invitrogen, cat. 25030081). The pooled donor HUVEC were cultured in endothelial cell growth medium 2 (PromoCell, Heidelberg, Germany, cat. C-22011) and the hMSC were cultured in mesenchymal stem cell growth medium 2 (PromoCell, cat. C-28009). For all experiments, HUVEC and hMSC were used at passages </=5, while the malignant cell lines were used at passages </=15. […]

[1] = second compound 0.1 µM, first compound 0.0316 µM
[2] = second compound 0.1 µM, first compound 0.1 µM
[3] = second compound 0.1 µM, first compound 0.316 µM
[4] = second compound 0.1 µM, first compound 1 µM
[5] = second compound 0.1 µM, first compound 3.16 µM
[6] = second compound 0.1 µM, first compound 10 µM
[7] = second compound 0.316 µM, first compound 0.0316 µM
[8] = second compound 0.316 µM, first compound 0.1 µM
[9] = second compound 0.316 µM, first compound 0.316 µM
[10] = second compound 0.316 µM, first compound 1 µM
[11] = second compound 0.316 µM, first compound 3.16 µM
[12] = second compound 0.316 µM, first compound 10 µM
[13] = second compound 1 µM, first compound 0.0316 µM
[14] = second compound 1 µM, first compound 0.1 µM
[15] = second compound 1 µM, first compound 0.316 µM
[16] = second compound 1 µM, first compound 1 µM
[17] = second compound 1 µM, first compound 3.16 µM
[18] = second compound 1 µM, first compound 10 µM
[19] = second compound 3.16 µM, first compound 0.0316 µM
[20] = second compound 3.16 µM, first compound 0.1 µM
[21] = second compound 3.16 µM, first compound 0.316 µM
[22] = second compound 3.16 µM, first compound 1 µM
[23] = second compound 3.16 µM, first compound 3.16 µM
[24] = second compound 3.16 µM, first compound 10 µM
[25] = second compound 10 µM, first compound 0.0316 µM
[26] = second compound 10 µM, first compound 0.1 µM
[27] = second compound 10 µM, first compound 0.316 µM
[28] = second compound 10 µM, first compound 1 µM
[29] = second compound 10 µM, first compound 3.16 µM
[30] = second compound 10 µM, first compound 10 µM
[31] = second compound 0.1 µM, first compound 0.01 µM
[32] = second compound 0.316 µM, first compound 0.01 µM
[33] = second compound 1 µM, first compound 0.01 µM
[34] = second compound 3.16 µM, first compound 0.01 µM
[35] = second compound 10 µM, first compound 0.01 µM
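Further: drug exposure lasted seven days.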
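Wherever viability, T/C is given: 100% = DMSO vehicle wells and lower means fewer viable cells.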

| SMILES | IC50 (second compound 0.1 µM) | IC50 (second compound 0.316 µM) | IC50 (second compound 1 µM) | IC50 (second compound 3.16 µM) | IC50 (second compound 10 µM) | viability, T/C [1] | viability, T/C [2] | viability, T/C [3] | viability, T/C [4] | viability, T/C [7] | viability, T/C [8] | viability, T/C [9] | viability, T/C [10] | viability, T/C [13] | viability, T/C [14] | viability, T/C [15] | viability, T/C [16] | viability, T/C [19] | viability, T/C [20] | viability, T/C [21] | other results |
| --- | --- | --- | --- | --- | --- | --- | --- | --- | --- | --- | --- | --- | --- | --- | --- | --- | --- | --- | --- | --- | --- |
| CCNC(=O)CC1N=C(c2ccc(Cl)cc2)c2cc(OC)ccc2-n2c(C)nnc21 (stereo not given) + COc1cc2nc(C)nc(NC(C)c3cc(N)cc(C(F)(F)F)c3)c2cc1OC1CCOC1 | > 10 µM | > 10 µM | > 10 µM | > 10 µM | 0.0382 µM | 91.4% | 87.3% | 75.6% | 75.2% | 95.6% | 103% | 76.3% | 72.4% | 83.7% | 86.2% | 74.1% | 65.6% | 70.8% | 71.3% | 66.5% | viability, T/C [5]: 70.5%; viability, T/C [6]: 75.8%; viability, T/C [11]: 68.5%; viability, T/C [12]: 73.1%; viability, T/C [17]: 69.5%; viability, T/C [18]: 66.8%; viability, T/C [22]: 73.8%; viability, T/C [23]: 60.7%; viability, T/C [24]: 75.4%; viability, T/C [25]: 48.7%; viability, T/C [26]: 52%; viability, T/C [27]: 39.5%; viability, T/C [28]: 34.2%; viability, T/C [29]: 40%; viability, T/C [30]: 28.4% |
| COC(=O)c1ccc2c(C(=Nc3ccc(N(C)C(=O)CN4CCN(C)CC4)cc3)c3ccccc3)c(O)[nH]c2c1 + C=CC(=O)N1CCN(c2nc(=O)n(-c3c(C)ccnc3C(C)C)c3nc(-c4c(O)cccc4F)c(F)cc23)C(C)C1 | 4.73 µM | 3.96 µM | 3.14 µM | 3.84 µM | 3.77 µM | 96.2% | 102% | 116% | 119% | 92.8% | 108% | 120% | 128% | 103% | 110% | 119% | 128% | 108% | 94.6% | 94.2% | viability, T/C [5]: 76.8%; viability, T/C [6]: 0.24%; viability, T/C [11]: 61.9%; viability, T/C [12]: 0.9%; viability, T/C [17]: 49.6%; viability, T/C [18]: 3.61%; viability, T/C [22]: 123%; viability, T/C [23]: 59.9%; viability, T/C [24]: 1.53%; viability, T/C [25]: 82.5%; viability, T/C [26]: 83.3%; viability, T/C [27]: 88.9%; viability, T/C [28]: 89%; viability, T/C [29]: 59%; viability, T/C [30]: 0.68% |
| CC(=O)OC12COC1CC(O)C1(C)C(=O)C(O)C3=C(C)C(OC(=O)C(O)C(NC(=O)OC(C)(C)C)c4ccccc4)CC(O)(C(OC(=O)c4ccccc4)C21)C3(C)C (stereo not given) + COc1cc2nc(C)nc(NC(C)c3cc(N)cc(C(F)(F)F)c3)c2cc1OC1CCOC1 | > 3.16 µM | > 3.16 µM | > 3.16 µM | > 3.16 µM | > 3.16 µM | 74.6% | 69.7% | 77.8% | 85.7% | 66.5% | 70.2% | 60.3% | 90.7% | 67.3% | 66.5% | 78.5% | 86.2% | 61.3% | 55.7% | 70% | viability, T/C [31]: 78.7%; viability, T/C [5]: 114%; viability, T/C [32]: 66.3%; viability, T/C [11]: 117%; viability, T/C [33]: 75.6%; viability, T/C [17]: 106%; viability, T/C [34]: 52.6%; viability, T/C [22]: 111%; viability, T/C [23]: 120%; viability, T/C [35]: 68.5%; viability, T/C [25]: 62.2%; viability, T/C [26]: 72.6%; viability, T/C [27]: 84.6%; viability, T/C [28]: 102%; viability, T/C [29]: 120% |
| CCN1CCN(Cc2ccc(Nc3ncc(F)c(-c4cc(F)c5nc(C)n(C(C)C)c5c4)n3)nc2)CC1 + COc1cc2nc(C)nc(NC(C)c3cc(N)cc(C(F)(F)F)c3)c2cc1OC1CCOC1 | > 1 µM | > 1 µM | > 1 µM | > 1 µM | < 0.00316 µM | 69.7% | 83.9% | 73.7% | 101% | 88.3% | 69.8% | 71.8% | 88.8% | 86.1% | 75.6% | 71.5% | 86.8% | 79.1% | 66.8% | 69.8% | viability, T/C (second compound 0.1 µM, first compound 0.00316 µM): 105%; viability, T/C [31]: 88%; viability, T/C (second compound 0.316 µM, first compound 0.00316 µM): 93.8%; viability, T/C [32]: 84.5%; viability, T/C (second compound 1 µM, first compound 0.00316 µM): 90.7%; viability, T/C [33]: 84.1%; viability, T/C (second compound 3.16 µM, first compound 0.00316 µM): 87.1%; viability, T/C [34]: 82.1%; viability, T/C [22]: 77.4%; viability, T/C (second compound 10 µM, first compound 0.00316 µM): 33.4%; viability, T/C [35]: 33.6%; viability, T/C [25]: 40.5%; viability, T/C [26]: 55.1%; viability, T/C [27]: 17.6%; viability, T/C [28]: 10% |
